According to paper PMC8333425, “Discovery of a dual Ras and ARF6 inhibitor from a GPCR endocytosis screen” (Nature Communications, 2021):
pIC50: −log10 of the molar value. Values joined by “and” are separate entries in the source; they are usually repeats but may differ in a detail not shown here. Equal entries are not always repeated.

Molecular target: T1, ARF (Homo sapiens, UniProt P62330)
T1 construct: endogenous in cells; host or cells: HEK293SL
Assay: ARF BRET sensor (GGA3-PBD-RlucII / rGFP-CAAX), AT1R-mediated
Format: cell-based
Details: for AngII-promoted BRET, AT1R-mediated ARF activation: individual experiments
Procedure: HEK293 cells were transfected with a BRET sensor that monitors the interaction between β-arrestins and the β-appendage of AP-2 (Fig. 2a)[26],[33]. […] The small GTPase ARF6, which binds β-arrestins and facilitates AP-2 and clathrin recruitment at the PM, is also necessary for CCPs initiation and receptor internalization. Therefore, ARF6 activity was assessed using the protein-3 binding domain (PBD) of the golgi-associated, gamma adaptin ear-containing, ARF-binding protein 3 (GGA3) fused to GST (GST-GGA3-PBD) in a pull-down assay, which allows the detection of GTP-bound ARF6 in cells[34] (Fig. 2b). […] This inhibition was selective for ARF6 since 21 had no effect on AT1R-dependent ARF1 activation (Supplementary Fig. 2a). We also devised a BRET assay to quantitatively assess 21’s action on ARF activity. The ARF BRET assay was created using the GGA3-PBD fused to RlucII (GGA3-PBD-RlucII) and the rGFP anchored at the PM (rGFP-CAAX) (Supplementary Fig. 3a). […] 21 blocked ARF’s activation by 40–60% following AT1R stimulation (Fig. 2c).
HEK293SL cells were seeded at a density of 7.5 × 10^5 cells per 100-mm dish and 24 h later, transiently transfected as such. For receptor internalization experiments, cells were transfected with 0.12 μg AT1R-RlucII, B2R-RlucII, or β2AR-RlucII and 0.48 μg of either rGFP-CAAX (to assess removal from the PM) or rGFP-FYVE (to assess accumulation in the endosomes). For β-arrestin recruitment assays, cells were transfected with 0.48 μg of receptor-YFP along with 0.12 μg of β-arrestin-RlucII. For β-arrestin/AP-2 binding experiments, cells were transfected with 1 μg Flag-AT1R, 1 μg β2-Adaptin-YFP, and 0.12 μg β-arrestin2-RlucII. For G protein activation, cells were transfected with 3 μg of sp-Flag-AT1R along with either 4.5 μg of the Gαq-polycistronic BRET sensor or 0.24 μg of the Gαi3-RlucII and 0.6 μg of GFP10-Gγ2 and Gβ1 sensors or 0.12 μg PKN-RBD-RlucII and 0.48 μg of rGFP-CAAX. For PKC activation, cells were transfected with 3 μg of sp-Flag-AT1R and 0.18 μg of the PKC sensor. For GTPase activation experiments, cells were transfected with 1 μg Flag-AT1R, 0.48 μg of rGFP-CAAX, and either 0.12 μg of GGA3-PBD-RlucII, PAK-CRIB-RlucII or Raf-RBD-RlucII. For biosensor validation experiments, cells were additionally transfected with 500 ng Flag-K-Ras-WT, Flag-K-Ras-G12V, Flag-K-Ras-SOS-CAAX, HA-ARF6-WT, HA-ARF6-T27N, Myc-Rac1-WT, Myc-Rac1-Q61L or Myc-Rac1-T17N. For PI3K/Akt activation experiments, cells were transfected with 0.48 μg of rGFP-CAAX and 0.12 μg of Akt (PH)-RlucII. After 18 h of transfection, the media was replaced and cells were divided for subsequent experiments. Cells were detached and seeded onto poly-L-ornithine-coated 96-well flat white bottom plates (BrandTech Scientific) at a density of 2.5 × 10^4 cells per well in media. The next day, cells were washed once with Tyrode’s buffer (140 mM NaCl, 2.7 mM KCl, 1 mM CaCl2, 12 mM NaHCO3, 5.6 mM D-glucose, 0.5 mM MgCl2, 0.37 mM NaH2PO4, 25 mM HEPES, pH 7.4) and left in Tyrode’s buffer. For kinetics of β-arrestin recruitment or β-arrestin binding to receptor and AP-2 experiments, cells were serum starved for 30 min, pretreated with 21 (50 µM) or Barbadin (100 µM) for 30 min, stimulated with 100 nM AngII or 1 µM BK and BRET signals were monitored at indicated times using a Victor X Light plate reader (PerkinElmer). Coelenterazine H (final concentration of 5 µM) was added 3–5 min prior to BRET measurements. Filter set was 460/80 nm and 535/30 nm for detecting the RlucII Renilla luciferase (donor) and YFP (acceptor) light emissions, respectively. The BRET ratio was determined by calculating the ratio of the light emitted by YFP over the light emitted by the RlucII. For G protein activation, cells were serum starved, pretreated with compounds for 30 min, stimulated with 100 nM AngII for 2 min (Gαq, Gαi3, and Rho sensors) or 5 min (PKC sensor). […]

T1 sequence (P62330 2-175): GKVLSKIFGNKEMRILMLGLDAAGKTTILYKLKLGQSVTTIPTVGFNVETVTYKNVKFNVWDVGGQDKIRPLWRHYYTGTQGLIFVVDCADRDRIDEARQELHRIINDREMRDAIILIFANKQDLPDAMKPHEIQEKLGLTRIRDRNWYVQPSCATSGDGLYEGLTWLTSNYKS

## CC(C)C(=O)N1CCN(c2ccc(NC(=O)c3cc4ccccc4o3)cc2Cl)CC1 [Compound 21]
50 μM
  block of ARF activation following AT1R stimulation (BRET): 40–60%
AT1R, dose-response
  pIC50: 5.15
Comp 21 50 μM, time 0 min
  AngII-promoted BRET, AT1R-mediated ARF activation: 0
Comp 21 50 μM, time 2 min
  AngII-promoted BRET, AT1R-mediated ARF activation: 0.01817 and 0.0425 and 0.0675
Comp 21 50 μM, time 5 min
  AngII-promoted BRET, AT1R-mediated ARF activation: 0.04183 and 0.1107 and 0.06017 and 0.076
Comp 21 50 μM, time 10 min
  AngII-promoted BRET, AT1R-mediated ARF activation: 0.04033 and 0.11 and 0.06283 and 0.0785
Comp 21 (50 μM), time 1 min
  AngII-promoted BRET, AT1R-mediated ARF activation: 0.04233 and 0.01117 and 0.065
Log [Comp 21] (M) -4
  Arf6 MEAN (Fig.4d): 20.8744
Log [Comp21] (M) -4.3
  Arf6 MEAN (Fig.4d): 30.1774
Log [Comp21] (M) -5
  Arf6 MEAN (Fig.4d): 40.2199
Log [Comp21] (M) -5.3
  Arf6 MEAN (Fig.4d): 84.9863
Log [Comp 21] (M) -6
  Arf6 MEAN (Fig.4d): 88.0739
Log [Comp21] (M) -6.3
  Arf6 MEAN (Fig.4d): 99.6353
Log [Comp 21] (M) -7
  Arf6 MEAN (Fig.4d): 93.4599
